Patent publication US12168678B2, “Heme sequesting peptides and uses therefor” (Board of Regents, The University of Texas System, priority 2019, dated 2024)
Where a name gives a salt, the structure may show the parent alone.

Columns and labels:
[1] = test system: A549 cells; experiment: Colony formation assay; format: cell-based, human; conditions: for effect of heme addition on colony formation: 10 μM heme add-back; for effect of iron addition on colony formation: 50 μM ferric chloride; for colony formation: 6 days, 0.5 mM succinyl acetone, 10 μM HSPs, 50 μM DFX, 10 μM SnPP
Experimental: (§1) Cell proliferation was measured by detecting the luciferase activity in live cells and by using a hemocytometer. Cell migration and invasion assays were carried out with BD Falcon cell culture inserts (Corning Life Sciences) and the manufacturer's cell migration, chemotaxis, and invasion assay protocols. For the colony formation assay, 5000 NSCLC cells were seeded in every well in 6-well tissue culture plates in triplicates. Cells were treated with 0.5 mM succinyl acetone (Sigma Aldrich), 10 μM HSPs, 50 μM deferoxamine mesylate (DFX), 10 μM zinc (II) protoporphyrin IX, 10 μM tin (IV) protoporphyrin IX, or 50 μM ferric chloride for 6 days. For heme add-back experiments, 10 μM heme was included. Medium was changed every 3 days. After 6 days of treatment, cells were fixed with 70% ethanol and stained with 0.5% crystal violet. Images were acquired by using Carestream Gel Logic GL-112 imaging system.

[2] = test system: H1299 cells; experiment: Colony formation assay; format: cell-based, human; conditions: for effect of heme addition on colony formation: 10 μM heme add-back; for effect of iron addition on colony formation: 50 μM ferric chloride; for colony formation: 6 days, 0.5 mM succinyl acetone, 10 μM HSPs, 50 μM DFX, 10 μM SnPP
Experimental: as §1

[3] = references 55, 56; cited from earlier work
[4] = test system: H1299 NSCLC lung tumor xenografts; format: in vivo; conditions: SA 50 mg/kg I.V. every 3 days, from 4 days after implantation
[5] = test system: H1299 NSCLC cells; experiment: Cell invasion assay (Matrigel invasion chambers); format: cell-based, human; conditions: heme add-back 10 μM, b23 prints 10 mM
[6] = test system: A549 NSCLC cells; experiment: Cell invasion assay (Matrigel invasion chambers); format: cell-based, human; conditions: 10 μM heme
[7] = test system: H1299 NSCLC cells; experiment: Cell migration assay (Transwell inserts); format: cell-based, human; conditions: heme add-back 10 μM, b23 prints 10 mM
Experimental: as §1

[8] = test system: A549 NSCLC cells; experiment: Cell migration assay (Transwell inserts); format: cell-based, human; conditions: 10 μM heme
Experimental: as §1

[9] = test system: 5-aminolevulic synthase (ALAS1); conditions: previous studies, non-erythroid cells; cited from earlier work
[10] = test system: heme oxygenases; conditions: reference 51; cited from earlier work

Row | Compound | effect of heme addition on colony formation [1] | effect of iron addition on colony formation [1] | colony formation [1] | effect of heme addition on colony formation [2] | effect of iron addition on colony formation [2] | colony formation [2] | toxicity to animals [3] | suppression of lung tumors (BLI) [4] | effect of heme addition on reduced invasion [5] | effect of heme addition on reduced invasion [6] | effect of heme addition on reduced migration [7] | effect of heme addition on reduced migration [8] | inhibition of heme biosynthesis [9] | inhibition of the activities of heme oxygenases [10]
1 | CC(=O)N(O)CCCCCNC(=O)CCC(=O)N(O)CCCCCNC(=O)CCC(=O)N(O)CCCCCN [DFX, Deferoxamine mesylate] | partially reversed | largely reversed | reduced colony formation | partially reversed | largely reversed | reduced colony formation |  |  |  |  |  |  |  | 
2 | CC(=O)CC(=O)CCC(=O)O [succinyl acetone, Succinyl acetone] | largely reversed | did not reverse | strongly suppressed colony formation | largely reversed | did not reverse | strongly suppressed colony formation | low toxicity | not very effective | largely reversed | largely reversed | largely reversed | largely reversed | effective inhibitor | 
3 | Tin (IV) protoporphyrin [SnPP] |  |  | appeared to reduce colony formation |  |  | appeared to reduce colony formation |  |  |  |  |  |  |  | strong inhibitor
